59 compounds from paper PMC7058665, “GPU-Accelerated Discovery of Pathogen-Derived Molecular Mimics of a T-Cell Insulin Epitope” (Frontiers in Immunology, 2020) can be followed below.

Where no end group is shown, it is not given here. Bounds are passed on as bounds.
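Note: T-cell clone rested overnight in 5% FBS medium, then cultured overnight with peptide titrations, MIP-1β released into supernatant measured by ELISA.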

For one assay, the system named is InsB4 T-cell clone. The format is cell-based, human.
Settings: not given
On to ITIERILTI, for which a half-maximal effect (EC50) was put at 1800 nM. Still for that read-out and setting: to LLIIGGLLF belongs 290 nM. On the same count and under the same terms, in the case of EMLERGLLV it was 1600 nM; in that of LLVERQLVL, 6600 nM. As to IITEGIMTL, the response was half-maximal at 5900 nM (EC50).

In the case of LLLERYFLA, it took 66 nM to reach a half-maximal effect (EC50). Take LQVEGAMSV: the EC50 – broadly, the concentration giving half of the maximal effect – amounted to 240 nM. Compound MQLENGLLL registered an EC50 of 6.3 nM. The same measure, in the same setting: to IMYEGLLFV belongs 70 nM. Same read-out and setting: to MLIEGVLTV belongs 10 nM.

Take FLIEGVLTI: the 50% effective concentration (EC50) was determined as 55 nM. Same read-out and setting: in the case of MLYENWLLS it was 1900 nM; in that of LMVENVPFA, 0.052 nM; in that of MIVEGFLLL, 59 nM. On the same count and under the same terms, in the case of MLIERVMST it was 5600 nM. Same read-out and setting: to FILEGILTV belongs 54 nM; to IVLEGAMIV, 130 nM; to LLVEDLLVL, 200 nM. Take ILIEGILFF: the EC50 is 0.92 nM.

For LLLERMFLF, the EC50 was determined as 1400 nM. The same measure, in the same setting: in the case of MLVEGVLLA it was 55 nM; in that of LQVENYLPI, 27 nM; in that of ILLENGYLL, 600 nM. Compound LILQGVLTM showed a concentration giving a half-maximal response (EC50) of 2600 nM.

Take ILIERGLTF: the EC50 was 79000 nM. On the same count and under the same terms, to LVLEDILLA belongs 1400 nM. Same read-out and setting: in the case of MLVEEGLLV it was 97 nM; in that of LMLERGFII, 950 nM. On the same count and under the same terms, in the case of MLVEWALVA it was 54 nM; in that of ALVENQFLL, 2200 nM; in that of LQVIRILLA, 2600 nM.

For the compound LLVENWPLL, the EC50 was 2.4 nM. The compound FLVEQVLFA had an EC50 of 3300 nM. LMLENLLTF: the EC50 is 2200 nM. Still for that read-out and setting: in the case of LILERSPTA it was 13000 nM; in that of LLVEGAMTV, 42 nM. On the same count and under the same terms, to LIEERSPLI belongs 6100 nM; to LLEENSPML, 50 nM. For MIVENVPLL, the EC50 amounted to 0.17 nM.

As for LLIENFVTG, the 50% effective concentration (EC50) came to 5600 nM. The same measure, in the same setting: in the case of LTVEGIFRV it was 1600 nM; in that of LLVEGALTG, 640 nM. IIVEDSLLV registered a 50% effective concentration (EC50) of 1.1 nM. In the case of FLTEWILPL, a half-maximal response (EC50) required 5800 nM.

Still in this assay, the particulars now being: 20 top-scoring fungal peptides, Figure 8; overnight, MIP-1β ELISA; NR = no T-cell response; read-out: EC50 of peptide activation of InsB4.
For MLLEGMMIV, the concentration for a half-maximal effect (EC50) is 110 nM. Still for that read-out and setting: to IQLENSLFA belongs 8900 nM; to MIIEGFLLI, 130 nM; to IMLENGPFL [top-scoring fungal peptide], greater than 10000 nM. Still for that read-out and setting: to LVVEGSLFV belongs 340 nM; to LILENYMFA, 880 nM. On the same count and under the same terms, to MQVEWILTF belongs 12000 nM. On to FLLERILIV, for which the EC50 stood at 960 nM. For `CC(C)C[C@H](NC(=O)[C@H](C)NC(=O)[C@H](CCC(=O)O)NC(=O)[C@@H](NC(=O)[C@H](CC(C)C)NC(=O)[C@@H](N)Cc1c[nH]cn1)C(C)C)C(=O)N[C@@H](Cc1ccc(O)cc1)C(=O)N[C@@H](CC(C)C)C(=O)N[C@H](C(=O)O)C(C)C` [reference compound], the EC50 came to 1100 nM. As to LLVEDMLLM, the concentration for a half-maximal effect (EC50) stood at 390 nM. Still for that read-out and setting: in the case of ILVERALFT [top-scoring fungal peptide] it was greater than 10000 nM; in that of LQLEGQLLL, 3900 nM; in that of LIIEWYLIM, 860 nM. On the same count and under the same terms, to LIIEWIFFL belongs 150 nM.

The same assay, now with this note: overnight, MIP-1β ELISA.
Turning to “ILLEGILIL [bacterial protein-derived nonamer peptide, Bin 2]”, the “agonist activity on InsB4 in words (relative to index HLVEALYLV)” value is “most potent”.
